# Reference: patent publication EP0087397A2, “Propionylglycine derivative, process for its preparation and therapeutic compositions which contain it as the active principle” (Farmatis S.r.l., priority 1982, dated 1983)
# Counter-ions that a name gives are not always drawn. Like-named read-outs stand apart in the source and are kept apart here.
# How the values were obtained:
# [1] = system: DIFCO gastric mucin; assay: Mucolytic activity on gastric mucin (in vitro, Ostwald viscosimeter); assay type: biochemical; conditions: for Residual Viscosity in %: 5 minutes at 25°C, average of six readings, % of initial viscosity
# Protocol: The mucolytic activity was measured using DIFCO gastric mucin (10 g dissolved in 100 ml of phyaiological solution).
# (§1) The mucolytic compounds under test were incubated for 5 minutes at 25°C under constant agitation, mixing 1 ml of aqueous solution of product, having increasing molar quantities of the product being considered, with 10 ml of mucin. The viscosity was measured both before and after incubation, using an Ostwald viscosimeter with 1.5 mm capillaries. […] Each value represents the average of six readings.
# [2] = Mucolytic activity on nonpurulent excreta (in vitro, viscosity); parameters: species or system chronic bronchitis patients; conditions: AC and MP in tamponed solution
# Protocol: as §1
# Mucolytic activity on nonpurulent excreta The mucolytic activity was measured using a pool of nonpurulent excreta obtained from chronic bronchitis patients. The excreta was diluted 1:1 with a physiological solution and homogenized for three minutes - using a glass homogenizer - and then filtered through gauze and used immediately. The method used here is the same as described in the previous paragraph. In this case, however, the residual viscosity was determined after 5 minutes at 25°C (a) and after 40 minutes at 37°C (b).
# [3] = system: bronchial hypersecretion induced in rats using S02; assay: In vivo mucolytic activity: bronchial hypersecretion induced by SO2; conditions: for number of rats which developed bronchial obstruction, expressed as a percentage of the animals not protected: oral 0.25 g/kg/die for two weeks, 300 ppm SO2 two hours per day, total 90 hours
# Protocol: This was determined by means of bronchial hypersecretion induced in rats using […]. The rats were treated by oral administration of 0.25 g/kg/die of mucolytic product for a period of two weeks, followed by inhalation of 300 ppm of SO2 for two hours per day for a total of 90 hours.
# [4] = system: intrabronchial desquamation and reactive hyperplasia of the mucosa; assay: Trophic-protective activity, nebulized CCl4; assay type: in vivo, rats; conditions: 0.25 g/kg/die orally for ten days, nebulized CCl4, 5 applications of 2 minutes/die
# Protocol: This was determined in rats by the administration of 0.25 g/kg/die, orally, of the product for a period of ten days while, contemporaneously, treating with nebulized CCl4 (5 applications of 2 minutes/die).
# [5] = system: carragenin; assay: Antiphlogistic activity, carragenin paw test; assay type: in vivo, rats; conditions: for ED50: Rattus norvegicus, sc, 3 h
# Protocol: This was determined on rats by means of the administration of the product,using an esophagus probe, one hour before making a subcutaneous injection of 0.05 ml of 1% carragenin solution in the right hind paw. After three hours, the volume of the treated paw was compared to the left hind paw, using a plethysmograph.
# [6] = system: aerosol histaminic shock; assay: Antibronchospasmic activity, aerosol histaminic shock; assay type: in vivo; conditions: for time for the onset of the convulsions: 0.1 g/kg i.p., histamine aerosol two hours after pretreatment
# Text: […] The time was taken for the onset of the convulsions after having started administering the aerosol.
# [7] = Acute toxicity; assay type: in vivo; conditions: mouse, in vivo, mice, read-out: DL50 (the source's name)
# Text: (§2) The acute toxicity determined in mice is shown by the values in Table 5 below: […]
# [8] = system: rats and dogs; assay: Subacute and chronic toxicity, gastric probe; assay type: in vivo; conditions: subacute 12 weeks in rats; chronic 6 months in rats and dogs, 0.1 - 0.5 g/kg/die; statement also covers fetal toxicity tests
# Protocol: The subacute toxicity of the new product being practically the same for either case of oral or endovenous administration, the administration was only done by.means of a gastric probe.
# (§3) The subacute toxicity tests were carried out for 12 weeks on the rats, the chronic toxicity on rats and dogs for 6 months (0.1 - 0.5 g/kg/die) and the fetal toxicity tests were carried out on rats (0.1 - 0.5 g/kg/die between the 6th and 16th days gravidity) and on rabbits (0.1 - 0.3 g/kg/die between the 6th and 18th days of gravidity).
# [9] = system: rats, rabbits; assay: Fetal toxicity; assay type: in vivo; conditions: rats 0.1 - 0.5 g/kg/die, 6th to 16th day of gravidity; rabbits 0.1 - 0.3 g/kg/die, 6th to 18th day
# Protocol: as §3
# [10] = system: rats; assay: Tolerability at the lung level (surfactant, type II pneumocytes) in rats of the chronic toxicity test; assay type: in vivo; conditions: at termination of chronic treatment
# Text: In order to evaluate the tolerability at the lung level, for the same rats undergoing the chronic toxicity test, a determination of the influence made at the surfactant level was done at the termination of the treatment. A phospholipids analysis was made, obtaining qualitative data by means of TLC chromographic analysis and quantitative data by phosphorous determination. Gas chromographic analysis was made of the fatty acid content in liposomes separated.by centrifuging from the liquid in which the excised lungs had been washed.
# [11] = Pharmacokinetics: urinary elimination, titrimetric method; assay type: in vivo, rats; conditions: for dose excreted at 5 h: rat, urine, 800 mg/kg
# Protocol: The pharmcokinetic tests were carried out on rats after having administered 0.8 g/kg of the new product, orally, and using an esophagus probe.
# The urinary elimination tests were carried out using the ti- trimetric method. Each sample was treated with an equal volume of 20% HCL, titrating the sulfhydrylic groups with M/100 potassium bromate until the disappearance of the yellow color and calculating the amount of contained new compound (I) by means of a calibrated curve obtained by the same method. The velocity of urinary excretion is maximum within the first two hours after administration. Maximum values obtained after 5 hours amount to about 20% of the amount administered. Administering the same dose (0.8 g/kg) to a rat by means of a rectal suppository of very small dimensions, the cumulative amount in per cent eliminated in the urine within the first five hours is about 12 %.
# [12] = system: chronic bronchitis cases; assay: Preliminary clinical tests in chronic bronchitis cases; assay type: in vivo; conditions: for diminuition of excreta viscosity: 4th-5th day of treatment, cone and plate rotary viscosimeter
# Protocol: In the clinical field, preliminary tests were performed with the new compound by giving daily doses of 0.5 g,parenterally, 0.8 g, by aerosol, and 1 g,either orally or rectally, to chronic bronchitis cases. There was a progressive diminuition of excreta viscosity at the 4th-5th day of treatment, 70% in the case of purulent expectoration and 50% in the case of muco- purulent expectoration. The values were measured by means of a cone and plate, rotary viscosimeter. There was an average increase of 20% in vital capacity, 15% in VEMS and a reduction of residual volume of about 20%.
# This test proves once more that the new product is well tolerated in comparison with the other compounds having free thiolic action.
# [13] = system: mice; assay: Acute toxicity; assay type: in vivo
# Text: as §2
# [14] = Molar Conc. 0.015, (a) after 5 minutes at 25°C
# [15] = Molar Conc. 0.015, (b) after 40 minutes at 37°C
# [16] = Molar Conc. 0.03, (a) after 5 minutes at 25°C
# [17] = Molar Conc. 0.03, (b) after 40 minutes at 37°C
# [18] = Molar Conc. 0.06, (a) after 5 minutes at 25°C
# [19] = Molar Conc. 0.06, (b) after 40 minutes at 37°C
# [20] = esophagus probe one hour before 0.05 ml 1% carragenin s.c. in right hind paw, paw volume after three hours, read-out: DE50 (the source's name)
# [21] = daily 0.5 g parenterally, 0.8 g aerosol or 1 g orally or rectally
smiles,measurement,setting,value
"O=C(O)CNC(=O)CCS [MPCa, calcium salt of beta-mercapto propionylamidoacetic acid]",Residual Viscosity in %,"[1]; Molar Conc. 0.015, 15000 µM",83%
same,Residual Viscosity in %,"[1]; Molar Conc. 0.03, 30000 µM",75%
same,Residual Viscosity in %,"[1]; Molar Conc. 0.06, 60000 µM",59%
same,Residual Viscosity in %,[2]; [14],76%
same,Residual Viscosity in %,[2]; [15],71%
same,Residual Viscosity in %,[2]; [16],44%
same,Residual Viscosity in %,[2]; [17],36%
same,Residual Viscosity in %,[2]; [18],32%
same,Residual Viscosity in %,[2]; [19],24%
same,persistence of the -SE groups in the cells of the bronchial mucosa,[3]; D.D.D. coloration,almost complete persistence
same,reduction of calyciform hyperplasia,"[3]; bronchial mucosa, P.A.S. coloration, less than control group",40%
same,number of muciparous cells,"[3]; bronchial mucosa, histological and histochemical tests",significant reduction
same,"number of rats which developed bronchial obstruction, expressed as a percentage of the animals not protected",[3],12.5%
same,prevention of intrabronchial desquamation and reactive hyperplasia of the mucosa,[4]; listed as The new compound,65%
same,ED50,[5]; [20],650 mg/kg
same,time for the onset of the convulsions,[6],250 s
same,increase of time for the onset of the convulsions,[6]; 48 hours after administration,30%
same,LD50,"[7]; ip, i.p",1710 mg/kg
same,LD50,"[7]; iv, e.v.",3470 mg/kg
same,LD50,"[7]; po, os",3510 mg/kg
same,tolerability,[8],Very good tolerability
same,effects on the mothers and on the characteristics of the offspring,[9],no negative effects
same,"surfactant level (phospholipids, fatty acid content) compared with the control group",[10],No significant differences
same,dose excreted at 5 h,"[11]; po, rats, 0.8 g/kg orally, after 5 hours, read-out: urinary elimination, % of the amount administered",~20%
same,time of maximum velocity of urinary excretion,"[11]; rats, 0.8 g/kg orally",two
same,dose excreted at 5 h,"[11]; 0.8 g/kg rectal suppository, within the first five hours, read-out: cumulative amount in per cent eliminated in the urine",~12%
same,bronchospasmic manifestations,"[12]; aerosol treatment, plethysmograph in broncholabile patients",no bronchospasmic manifestations were observed
same,average increase in VEMS,[12]; [21],15%
same,average increase in vital capacity,[12]; [21],20%
same,reduction of residual volume,[12]; [21],about 20%
same,diminuition of excreta viscosity,[12]; muco-purulent expectoration,50%
same,diminuition of excreta viscosity,[12]; purulent expectoration,70%
"O=C(O)CNC(=O)CCS [MP, beta-mercaptopropionylamidoacetic acid]",Residual Viscosity in %,"[1]; Molar Conc. 0.015, 15000 µM",88%
same,Residual Viscosity in %,"[1]; Molar Conc. 0.03, 30000 µM",84%
same,Residual Viscosity in %,"[1]; Molar Conc. 0.06, 60000 µM",65%
same,Residual Viscosity in %,[2]; [14],82%
same,Residual Viscosity in %,[2]; [15],78%
same,Residual Viscosity in %,[2]; [16],63%
same,Residual Viscosity in %,[2]; [17],56%
same,Residual Viscosity in %,[2]; [18],40%
same,Residual Viscosity in %,[2]; [19],31%
same,"number of rats which developed bronchial obstruction, expressed as a percentage of the animals not protected",[3],16%
same,prevention of intrabronchial desquamation and reactive hyperplasia of the mucosa,[4],≤ 50%
same,DE50,"[5]; esophagus probe one hour before 0.05 ml 1% carragenin s.c. in right hind paw, paw volume after three hours, 180 min",785 mg/kg
same,time for the onset of the convulsions,[6],210 s
same,DL50,[13]; e.v.,3.10 g/kg
same,DL50,[13]; i.p,1.54 g/kg
same,DL50,[13]; os,3.20 g/kg
"CC(=O)Oc1ccccc1C(=O)O [ASA, acetylsalicylic acid]",ED50,[5]; read-out: DE50,100 mg/kg
"NC(CSCC(=O)O)C(=O)O (stereo not drawn) [CM, S-carboxymetylcystine]",values lower than those obtained with the MP compound,"[1]; tests of Tables 1 and 2 (mucin and excreta) repeated, relative to MP",30%
same,"number of rats which developed bronchial obstruction, expressed as a percentage of the animals not protected",[3],29%
same,prevention of intrabronchial desquamation and reactive hyperplasia of the mucosa,[4],≤ 50%
same,DE50,"[5]; esophagus probe one hour before 0.05 ml 1% carragenin s.c. in right hind paw, paw volume after three hours",not measurable
"CC(=O)N[C@@H](CS)C(=O)O [AC, N-acetylcysteine]",Residual Viscosity in %,"[1]; Molar Conc. 0.015, 15000 µM",91%
same,Residual Viscosity in %,"[1]; Molar Conc. 0.03, 30000 µM",86%
same,Residual Viscosity in %,"[1]; Molar Conc. 0.06, 60000 µM",66%
same,Residual Viscosity in %,[2]; [14],87%
same,Residual Viscosity in %,[2]; [15],82%
same,Residual Viscosity in %,[2]; [16],68%
same,Residual Viscosity in %,[2]; [17],62%
same,Residual Viscosity in %,[2]; [18],40%
same,Residual Viscosity in %,[2]; [19],33%
same,"number of rats which developed bronchial obstruction, expressed as a percentage of the animals not protected",[3],16%
same,prevention of intrabronchial desquamation and reactive hyperplasia of the mucosa,[4],≤ 50%
same,ED50,[5]; [20],830 mg/kg
same,time for the onset of the convulsions,[6],210 s
same,LD50,"[7]; ip, i.p",400 mg/kg
"CC(S)C(=O)NCC(=O)O (stereo not drawn) [MP/A, alpha-mercaptopropionylamidoacetic acid]",values obtained compared with the beta isomer (MP),[1]; tests of Tables 1 and 2 (mucin and excreta) repeated,substantially the same as those obtained with the beta isomer (MP)
same,"number of rats which developed bronchial obstruction, expressed as a percentage of the animals not protected",[3],14.5%
same,prevention of intrabronchial desquamation and reactive hyperplasia of the mucosa,[4],≤ 50%
same,ED50,[5]; [20],780 mg/kg
same,time for the onset of the convulsions,[6],200 s
same,LD50,"[7]; ip, i.p",1280 mg/kg
same,LD50,"[7]; iv, e.v.",2240 mg/kg
same,LD50,"[7]; po, os",2190 mg/kg
